US20090048301A1 (IMCLONE SYSTEMS INCORPORATED, priority 2003, published 2009)

Key:
[1] = test system: A431, human epidermoid carcinoma cells; test: Cell cycle analysis (FACS), mitotic arrest in G2/M; format: cell-based; details: Homo sapiens, A-431, 24 h, read-out: FACS Assay: concentration required to achieve inhibition in FACS assay
Protocol: The cell cycle analysis was performed as follows. Cancer cells (A431, human epidennoid carcinoma cells) were maintained in culture in D-MEM media with 10% FBS and 1 mg/ml glutamate. Prior to experiment, cells were plated onto 6-well plates for a final density of 500,000 cells/well at the time of treatment. Cells were treated with the compounds of the invention at a concentration of about 0.01 to 1 μM final concentrations (final 0.1% DMSO) for 24 hours, then trypsinized, collected, rinsed in PBS (phosphate buffered saline), and fixed in 70% cold ethanol overnight at 4° C. The cells were then rinsed with PBS, resuspended in PBS with 0.2% Tween, RNAse was added (final 1 μg/ml), cells were incubated at 37° C. for 15 min, followed by addition of Propidium Iodide (final 50 μg/ml), and a 30 minute incubation at room temperature. DNA ploidy was analyzed using flow cytometers (Epics Excel, Beckman-Coulter, or Guava PCA-96, Guava Technologies) and mitotic arrest characterized by massive accumulation of cells in the G2/M phase of cell cycle.
Cancer cells (A431, human epidermoid cells) were maintained in culture in D-MEM media with 10% FBS and 1 mg/ml glutamate. Prior to experiment, cells are plated onto 6-well plates for a final density of 500,000 cells/well at the time of treatment. Cells were treated with compounds at 0.01-1 μM final concentrations (final […] DMS 0) for 24 hours, then trypsinized, collected, rinsed in PBS (phosphate buffered saline), and fixed in 70% cold ethanol overnight at 4° C. Cells were then rinsed with PBS, resuspended in PBS with 0.2% Tween, RNAse was added (final 1 μg/ml), cells were incubated at 37° C. for 15 min, followed by addition of Propidium Iodide (final 50 μg/ml), and a 30 minute incubation at room temperature. DNA ploidy was analyzed using cell sorters (Epics Excel, Beckman-Coulter, or Guava PCA-96, Guava Technologies) and mitotic arrest characterized by massive accumulation of cells in the G2/M phase of cell cycle.

bovine tubulin = test: In vitro tubulin polymerization assay (turbidity at 340 nm); format: biochemical; details: 10 μM compound, 30 minute data point, vs 1% DMSO control
How it was run: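 Bovine tubulin (97%, <3% MAPs) at 3 mg/ml final in G-PEM pH 7 with 1 mM GTP and 5% glycerol, added cold to compound wells at 37° C (1% DMSO final). A340 read each minute for 30 min; percent inhibition from 30-min point versus DMSO control.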

| SMILES | minimal effective concentration [1] [µM] | Tubulin Assay: percent inhibition at 10 μM based on 30 minute data (bovine tubulin) [%] |
| --- | --- | --- |
| c1cnc(NCc2ccncc2)c(-c2nnc(Nc3ccc4c(c3)OCCO4)o2)c1 [Compound 206, {3-[5-(2,3-Dihydro-benzo[1,4]dioxin-6-ylamino)-[1,3,4]oxadiazol-2-yl]-pyridin-2-yl}-pyridin-4-ylmethyl-amine] | 0.025 | 94 |
| c1cnc(OCc2ccc3c(c2)OCO3)c(-c2nnc(Nc3ccc4c(c3)OCCO4)[nH]2)c1 [Compound 71, {5-[2-(Benzo[1,3]dioxol-5-ylmethoxy)-pyridin-3-yl]-4H-[1,2,4]triazol-3-yl}-(2,3-dihydro-benzo[1,4]dioxin-6-yl)-amine] | 0.1 | 83 |
| COc1cc(Nc2ncccc2-c2nnc(Nc3ccc4c(c3)OCCO4)[nH]2)cc(OC)c1 [Compound 50, {3-[5-(2,3-Dihydro-benzo[1,4]dioxin-6-ylamino)-4H-[1,2,4]triazol-3-yl]-pyridin-2-yl}-(3,5-dimethoxy-phenyl)-amine] | 0.1 | 90 |
| Brc1ccc(-c2nnc(-c3ccccc3NCc3ccc4[nH]ncc4c3)[nH]2)cc1 [Compound 145, {2-[5-(4-Bromo-phenyl)-4H-[1,2,4]triazol-3-yl]-phenyl}-(1H-indazol-5-ylmethyl)-amine] | 0.1 | 58 |
| COc1cc(CNc2ccccc2-c2cnc(Nc3ccc4c(c3)OCCO4)o2)cc(OC)c1 [Compound 246, (2,3-Dihydro-benzo[1,4]dioxin-6-yl)-{5-[2-(3,5-dimethoxy-benzylamino)-phenyl]-oxazol-2-yl}-amine] | 1 | 72 |
| O=S(=O)(Nc1ccccc1-c1nnc(Nc2ccc3c(c2)OCCO3)[nH]1)c1cccc(OC(F)(F)F)c1 [Compound 127, N-{2-[5-(2,3-Dihydro-benzo[1,4]dioxin-6-ylamino)-4H-[1,2,4]triazol-3-yl]-phenyl}-3-trifluoromethoxy-benzenesulfonamide] | 10 | 61 |
| CS(=O)(=O)c1ccc(-c2nnc(-c3cccnc3NCc3ccc4c(c3)CCO4)[nH]2)cc1 [Compound 97, (2,3-Dihydro-benzofuran-5-ylmethyl)-{3-[5-(4-methanesulfonyl-phenyl)-4H-[1,2,4]triazol-3-yl]-pyridin-2-yl}-amine] | 1 | 77 |
| FC(F)(F)Oc1cccc(-c2nnc(-c3ccccc3NCc3ccc4c(c3)OCCO4)[nH]2)c1 [Compound 142, (2,3-Dihydro-benzo[1,4]dioxin-6-ylmethyl)-{2-[5-(3-trifluoromethoxy-phenyl)-4H-[1,2,4]triazol-3-yl]-phenyl}-amine] |  | 20 |
| c1ccc(-c2nnc(Nc3ccc4c(c3)OCO4)[nH]2)c(NCc2ccc3[nH]cnc3c2)c1 [Compound 118, Benzo[1,3]dioxol-5-yl-(5-{2-[(1H-benzoimidazol-5-ylmethyl)-amino]-phenyl}-4H-[1,2,4]triazol-3-yl)-amine] |  | 41 |
| CS(=O)(=O)c1ccc(-c2nnc(-c3cccnc3NCc3ccc(F)cc3)o2)cc1 [Compound 212, (4-Fluoro-benzyl)-{3-[5-(4-methanesulfonyl-phenyl)-[1,3,4]oxadiazol-2-yl]-pyridin-2-yl}-amine] |  | 38 |
| FC(F)(F)c1ccc(-c2nnc(-c3ccccc3NCc3ccc4c(c3)OCO4)[nH]2)cc1 [Compound 138, Benzo[1,3]dioxol-5-ylmethyl-{2-[5-(4-trifluoromethyl-phenyl)-4H-[1,2,4]triazol-3-yl]-phenyl}-amine] |  | 28 |
| COc1cccc(Nc2nnc(-c3cccnc3NCCCn3ccnc3)[nH]2)c1 [Compound 29, (3-Imidazol-1-yl-propyl)-{3-[5-(3-methoxy-phenylamino)-4H-[1,2,4]triazol-3-yl]-pyridin-2-yl}-amine] |  | 28 |
| O=S(=O)(Nc1ccccc1-c1nnc(Nc2ccc3c(c2)OCO3)o1)c1cccc(OC(F)(F)F)c1 [Compound 239, N-{2-[5-(Benzo[1,3]dioxol-5-ylamino)-[1,3,4]oxadiazol-2-yl]-phenyl}-3-trifluoromethoxy-benzenesulfonamide] |  | 49 |
| FC(F)(F)c1ccc(-c2nnc(-c3ccccc3NCc3ccc4c(c3)OCCO4)[nH]2)cc1 [Compound 139, (2,3-Dihydro-benzo[1,4]dioxin-6-ylmethyl)-{2-[5-(4-trifluoromethyl-phenyl)-4H-[1,2,4]triazol-3-yl]-phenyl}-amine] |  | 21 |
| COc1cc(Nc2ncccc2-c2nnc(Nc3cccc(NS(=O)(=O)c4ccc5c(c4)CCO5)c3)[nH]2)cc(OC)c1 [Compound 63, 2,3-Dihydro-benzofuran-5-sulfonic acid (3-{5-[2-(3,5-dimethoxy-phenylamino)-pyridin-3-yl]-4H-[1,2,4]triazol-3-ylamino}-phenyl)-amide] |  | 24 |
| c1cnc(OCc2ccc3c(c2)OCO3)c(-c2nnc(Nc3ccc4c(c3)OCO4)o2)c1 [Compound 208, Benzo[1,3]dioxol-5-yl-{5-[2-(benzo[1,3]dioxol-5-ylmethoxy)-pyridin-3-yl]-[1,3,4]oxadiazol-2-yl}-amine] |  | 44 |
| CS(=O)(=O)c1ccc(-c2nnc(-c3cccnc3NCc3cccc(F)c3)[nH]2)cc1 [Compound 107, (3-Fluoro-benzyl)-{3-[5-(4-methanesulfonyl-phenyl)-4H-[1,2,4]triazol-3-yl]-pyridin-2-yl}-amine] |  | 37 |
| c1cncc(CCNc2ncccc2-c2nnc(Nc3ccc4c(c3)OCO4)o2)c1 [Compound 200, {3-[5-(Benzo[1,3]dioxol-5-ylamino)-[1,3,4]oxadiazol-2-yl]-pyridin-2-yl}-(2-pyridin-3-yl-ethyl)-amine] |  | 68 |
| COc1cccc(-c2nnc(-c3cccnc3NCc3ccco3)[nH]2)c1 [Compound 95, Furan-2-ylmethyl-{3-[5-(3-methoxy-phenyl)-4H-[1,2,4]triazol-3-yl]-pyridin-2-yl}-amine] |  | 41 |
| COc1cccc(Nc2ncc(-c3ccccc3OCc3ccncc3)o2)c1 [Compound 256, (3-Methoxy-phenyl)-{5-[2-(pyridin-4-ylmethoxy)-phenyl]-oxazol-2-yl}-amine] |  | 50 |
| FC(F)(F)c1cccc(-c2nnc(-c3cccnc3NCc3ccco3)[nH]2)c1 [Compound 96, Furan-2-ylmethyl-{3-[5-(3-trifluoromethyl-phenyl)-4H-[1,2,4]triazol-3-yl]-pyridin-2-yl}-amine] |  | 20 |
| COc1ccc(OC)c(Nc2nnc(-c3cccnc3NCc3cccnc3)[nH]2)c1 [Compound 28, {3-[5-(2,5-Dimethoxy-phenylamino)-4H-[1,2,4]triazol-3-yl]-pyridin-2-yl}-pyridin-3-ylmethyl-amine] |  | 22 |
| COc1cc(Nc2ncccc2-c2nc(Nc3ccc4c(c3)OCCO4)n(C)n2)cc(OC)c1 [Compound 67, {3-[5-(2,3-Dihydro-benzo[1,4]dioxin-6-ylamino)-1-methyl-1H-[1,2,4]triazol-3-yl]-pyridin-2-yl}-(3,5-dimethoxy-phenyl)-amine] |  | 76 |
| COc1cc(Nc2ncccc2-c2nnc(Nc3cccc(NCC4CCOCC4)c3)[nH]2)cc(OC)c1 [Compound 61, N-{5-[2-(3,5-Dimethoxy-phenylamino)-pyridin-3-yl]-4H-[1,2,4]triazol-3-yl}-N′-(tetrahydro-pyran-4-ylmethyl)-benzene-1,3-diamine] |  | 24 |
